These results are taken from paper PMC4450769, “Placement of oppositely charged aminoacids at a polypeptide termini determines the voltage-controlled braking of polymer transport through nanometer-scale pores” (Scientific Reports, 2015).

For the experiment, the system named is Staphylococcus aureus α-hemolysin (α-HL) pore. In kind it is biochemical.

As for “Ac-RRRRRRAAAAAARRRRRR- NH 2 [CP2, control peptide construct with net charge of ~ +6 e− at both N- and C-termini at neutral pH]”, where the note is “5 µM”, the “capture by the pore as a function of potential polarity” value is reported as “captured by the pore only for positive potentials”. In addition, under “pH 7.3”, the “association with and block of the α-HL pore at negatively applied potential” value was “does not associate and block”.
